Laboratory results: US10125111B2, “Benzofuran compounds for the treatment of hepatitis C” (BRISTOL-MYERS SQUIBB COMPANY, priority 2015, dated 2018)
pEC50: −log10 of the molar value.

Each compound was assayed on genotype 1b (Con-1) HCV replicon (assay: HCV Replicon Luciferase Assay). Conditions: Hepatitis C virus, 72 h; Huh-7 genotype 1b replicon, Renilla luciferase, 3 days incubation; read-out: EC50 1b (class).
Format: cell-based
Procedure: The cell lines used to evaluate compounds consist of a human hepatocyte derived cell line (Huh-7) that constitutively expresses a genotype 1b (Con-1) HCV replicon or a genotype 1b (Con-1) HCV replicon with an asparagine replacing the cysteine at amino acid 316, or a genotype 2a (JFH-1) replicon, containing a Renilla luciferase reporter gene. These cells were maintained in Dulbecco's modified Eagle medium (DMEM) containing 10% FBS, 100 U/mL penicillin/streptomycin and 1.0 mg/mL G418.
To evaluate compound efficacy, titrated compounds were transferred to sterile 384-well tissue culture treated plates, and the plates were seeded with HCV replicon cells (50 μL at a density of 2.4×10^3 cells/well) in DMEM containing 4% FBS (final DMSO concentration at 0.5%). After 3 days incubation at 37° C., cells were analyzed for Renilla Luciferase activity using the EnduRen substrate (Promega cat #E6485) according to the manufacturer's directions. Briefly, the EnduRen substrate was diluted in DMEM and then added to the plates to a final concentration of 7.5 μM. The plates were incubated for at least 1 h at 37° C. then read on a Viewlux Imager (PerkinElmer) using a luminescence program. The 50% effective concentration (EC50) was calculated using the four-parameter logistic Formula noted above.
Compound EC50 data is expressed as A: <100 nM; B=100-1000 nM; C>1000 nM).

SMILES	pEC50
CNC(=O)c1c(-c2ccc(F)cc2)oc2cc(N(CCF)S(C)(=O)=O)c(-c3cccc(C(=O)N4CCC(O)C4)c3)cc12 (stereo not shown) [Compound 3039]	< 6.00
CNC(=O)c1c(-c2ccc(F)cc2)oc2cc(N(CCF)S(C)(=O)=O)c(-c3cccc(C(=O)N4CCC[C@H]4CO)c3)cc12 [Compound 3035]	6.00 to 7.00
CNC(=O)c1c(-c2ccc(F)cc2)oc2cc(N(CCF)S(C)(=O)=O)c(-c3cccc(C(=O)NC4(C#N)CC4)c3)cc12 [Compound 3011]	> 7.00
CNC(=O)c1c(-c2ccc(F)cc2)oc2cc(N(CCCF)S(C)(=O)=O)c(-c3cccc(C(=O)NC4(C#N)CC4)c3)cc12 [Compound 4014]	> 7.00
CNC(=O)c1c(-c2ccc(F)cc2)oc2cc(N(CCCF)S(C)(=O)=O)c(-c3cccc(C(=O)NC4(C)CC4)c3)cc12 [Compound 4016]	> 7.00
CC[C@H](NC(=O)c1cccc(-c2cc3c(C(=O)NC)c(-c4ccc(F)cc4)oc3cc2N(CCF)S(C)(=O)=O)c1)C1CC1 [Compound 3008]	> 7.00
CNC(=O)c1c(-c2ccc(F)cc2)oc2cc(N(CCF)S(C)(=O)=O)c(-c3cccc(C(=O)N4CC(NC(=O)OC(C)(C)C)C4)c3)cc12 [Compound 3042]	6.00 to 7.00
CNC(=O)c1c(-c2ccc(F)cc2)oc2cc(N(CCF)S(C)(=O)=O)c(-c3cccc(C(=O)N4CCN(CC(C)C)CC4)c3)cc12 [Compound 3033]	> 7.00
CNC(=O)c1c(-c2ccc(F)cc2)oc2cc(N(CCC(F)(F)F)S(C)(=O)=O)c(-c3cccc(C(=O)O)c3)cc12 [Compound 9002]	< 6.00
CNC(=O)c1c(-c2ccc(F)cc2)oc2cc(N(CCCF)S(C)(=O)=O)c(-c3cccc(C(=O)O)c3)cc12 [Compound 4002]	< 6.00
CNC(=O)c1c(-c2ccc(F)cc2)oc2cc(N(CCCF)S(C)(=O)=O)c(-c3cccc(C(=O)NC4(C)CCC4)c3)cc12 [Compound 4022]	> 7.00
[2H]C([2H])([2H])C(NC(=O)c1cccc(-c2cc3c(C(=O)NC)c(-c4ccc(F)cc4)oc3cc2N(CCCF)S(C)(=O)=O)c1)(C([2H])([2H])[2H])C([2H])([2H])[2H] [Compound 4006]	> 7.00
CNC(=O)c1c(-c2ccc(F)cc2)oc2cc(N(CCCF)S(C)(=O)=O)c(-c3cccc(C(=O)NC(CF)(CF)CF)c3)cc12 [Compound 4004]	> 7.00
CNC(=O)c1c(-c2ccc(F)cc2)oc2cc(N(CC3CC3)S(C)(=O)=O)c(-c3cccc(C(=O)NC(C)(C)C#N)c3)cc12 [Compound 2005]	> 7.00
CNC(=O)c1c(-c2ccc(F)cc2)oc2cc(N(C(F)F)S(C)(=O)=O)c(-c3cccc(C(=O)OC)c3)cc12 [Compound 6001]	> 7.00
CNC(=O)c1c(-c2ccc(F)cc2)oc2cc(N(CCCF)S(C)(=O)=O)c(-c3cccc(C(=O)NCC(C)(F)F)c3)cc12 [Compound 4019]	> 7.00
CNC(=O)c1c(-c2ccc(F)cc2)oc2cc(N(CCCF)S(C)(=O)=O)c(-c3cccc(C(=O)NCC(F)F)c3)cc12 [Compound 4020]	> 7.00
CCC1CCCN1C(=O)c1cccc(-c2cc3c(C(=O)NC)c(-c4ccc(F)cc4)oc3cc2N(CCF)S(C)(=O)=O)c1 (stereo not shown) [Compound 3027]	> 7.00
CNC(=O)c1c(-c2ccc(F)cc2)oc2cc(N(CCF)S(C)(=O)=O)c(-c3cccc(C(=O)NC(CF)(CF)CF)c3)cc12 [Compound 3004]	> 7.00
CNC(=O)c1c(-c2ccc(F)cc2)oc2cc(N(CCF)S(C)(=O)=O)c(-c3cccc(C(=O)N4CCN(C(=O)OC(C)(C)C)CC4(C)C)c3)cc12 [Compound 3044]	> 7.00
CNC(=O)c1c(-c2ccc(F)cc2)oc2cc(N(CCC(F)(F)F)S(C)(=O)=O)c(-c3cccc(C(=O)NC(C)(C)CF)c3)cc12 [Compound 9007]	> 7.00
CNC(=O)c1c(-c2ccc(F)cc2)oc2cc(N(CCF)S(C)(=O)=O)c(-c3cccc(C(=O)NC(C)(C)C)c3)cc12 [Compound 3016]	> 7.00
CNC(=O)c1c(-c2ccc(F)cc2)oc2cc(N(CCC(F)(F)F)S(C)(=O)=O)c(-c3cccc(C(=O)NC(C)(C)C(F)(F)F)c3)cc12 [Compound 9004]	> 7.00
CNC(=O)c1c(-c2ccc(F)cc2)oc2cc(N(CCCF)S(C)(=O)=O)c(-c3cccc(C(=O)NC(C)(C)C(=O)OC)c3)cc12 [Compound 4013]	> 7.00
CNC(=O)c1c(-c2ccc(F)cc2)oc2cc(N(CCF)S(C)(=O)=O)c(-c3cccc(C(=O)N4CCC[C@H]4C(=O)OC)c3)cc12 [Compound 3041]	6.00 to 7.00

Same assay, conditions: Hepatitis C virus, 72 h; Huh-7 genotype 1b replicon, Renilla luciferase, 3 days incubation; read-out: EC50 (uM) 1b

SMILES	EC50 [µM]
CNC(=O)c1c(-c2ccc(F)cc2)oc2cc(N(CCF)S(C)(=O)=O)c(-c3cccc(C(=O)N4CCC(O)C4)c3)cc12 (stereo not shown) [Compound 3039]	1.61
CNC(=O)c1c(-c2ccc(F)cc2)oc2cc(N(CCF)S(C)(=O)=O)c(-c3cccc(C(=O)N4CC(NC(=O)OC(C)(C)C)C4)c3)cc12 [Compound 3042]	0.138
CNC(=O)c1c(-c2ccc(F)cc2)oc2cc(N(CCCF)S(C)(=O)=O)c(-c3cccc(C(=O)NC4(C)CCC4)c3)cc12 [Compound 4022]	0.0077
CNC(=O)c1c(-c2ccc(F)cc2)oc2cc(N(CC3CC3)S(C)(=O)=O)c(-c3cccc(C(=O)NC(C)(C)C#N)c3)cc12 [Compound 2005]	0.0147
CNC(=O)c1c(-c2ccc(F)cc2)oc2cc(N(CCCF)S(C)(=O)=O)c(-c3cccc(C(=O)NCC(C)(F)F)c3)cc12 [Compound 4019]	0.0098
CNC(=O)c1c(-c2ccc(F)cc2)oc2cc(N(CCC(F)(F)F)S(C)(=O)=O)c(-c3cccc(C(=O)NC(C)(C)C(F)(F)F)c3)cc12 [Compound 9004]	0.0106
